# Patent publication US9856279B2 (AGIOS PHARMACEUTICALS, INC, priority 2011, dated 2018)
# Read-outs that look alike come from different tables or passages of the source.
# What was measured:
# [1] = molecular target: IDH1 R132H (Homo sapiens, UniProt O75874, R132H); assay: Assay for IDH1 R132H inhibitors (NADPH/aKG, resazurin detection); format: biochemical; conditions: enzyme assay of Example 12; read-out: IDH1R132H IC50
# How it was run: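 Read-out is resorufin fluorescence (Ex544/Em590) 5 min after adding a 30 μM resazurin detection mix. Before that, mutant enzyme (0.2 μg/ml in its mix) ran 50 min at room temperature with compound, 8 uM NADPH and 2 mM aKG (mix levels) in Tris pH 7.5 with NaCl, MgCl2, BSA.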
# [2] = tested on: U87MG cells; assay: Cellular assay for IDH1m inhibitors: inhibition of 2-HG production (LC-MS, 48 hours) in U87MG cells; format: cell-based; conditions: inhibition of 2-HG production, U87R132H cells, read-out: U87R132H IC50
# How it was run: (§1)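 Cells were seeded at 5000/well in DMEM with 10% FBS, incubated overnight, then treated with compound (0.2% DMSO final) for 48 h at 37° C. Medium 2-HG was quantified by LC-MS. IC50 is the concentration reducing 2-HG by 50% versus DMSO control, and CellTiter-Glo viability was read at 72 h.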
# [3] = tested on: HT1080 cells; assay: Cellular assay for IDH1m inhibitors: inhibition of 2-HG production (LC-MS, 48 hours) in HT1080 cells; format: cell-based; conditions: Homo sapiens, HT-1080; inhibition of 2-HG production, HT1080 cells; read-out: HT1080 IC50
# How it was run: as §1
# IDH1 R132H, sequence (O75874 whole entry R132H): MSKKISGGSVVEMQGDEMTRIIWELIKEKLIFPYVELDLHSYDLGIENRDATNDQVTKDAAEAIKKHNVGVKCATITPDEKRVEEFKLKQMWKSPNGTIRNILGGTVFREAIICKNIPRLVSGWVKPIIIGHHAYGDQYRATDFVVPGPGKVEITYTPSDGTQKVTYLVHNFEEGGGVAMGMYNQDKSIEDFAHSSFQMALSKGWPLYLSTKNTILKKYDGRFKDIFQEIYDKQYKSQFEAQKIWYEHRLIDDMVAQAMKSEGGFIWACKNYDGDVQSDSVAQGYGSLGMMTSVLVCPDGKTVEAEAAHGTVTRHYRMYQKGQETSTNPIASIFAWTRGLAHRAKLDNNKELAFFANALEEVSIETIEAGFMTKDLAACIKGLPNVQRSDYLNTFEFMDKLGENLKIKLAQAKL
IC50 [1] [nM],"IC50 ([2]; Homo sapiens, U-87 MG) [nM]",IC50 [3] [nM],IC50 [2] [nM],Compound
< 500,< 500,< 500,,"C=Cc1cc(-c2cc(C#N)c(N3CCN(C(=O)CO)[C@H](C4CC4)C3)nc2C2CC2)ccn1 [Compound 738, (R)-2-cyclopropyl-6-(3-cyclopropyl-4-(2-hydroxyacetyl)piperazin-1-yl)-2′-vinyl-3,4′-bipyridine-5-carbonitrile]"
< 500,< 500,< 500,,"C=Cc1cc(-c2cc(C#N)c(N3CCN(C(=O)CCO)[C@H](C(C)C)C3)nc2C2CC2)ccn1 [Compound 721, (R)-2-cyclopropyl-6-(4-(3-hydroxypropanoyl)-3-isopropylpiperazin-1-yl)-2′-vinyl-3,4′-bipyridine-5-carbonitrile]"
< 500,< 500,< 500,,"C=Cc1cnnc(-c2c(C3CC3)nc(N3CCN(C(=O)C[C@H]4CCO4)[C@H](C(C)C)C3)c(C#N)c2C)c1 [Compound 793, 6-cyclopropyl-2-((R)-3-isopropyl-4-(2-((R)-oxetan-2-yl)acetyl)piperazin-1-yl)-4-methyl-5-(5-vinylpyridazin-3-yl)nicotinonitrile]"
< 500,< 500,< 500,,"C=Cc1cc(-c2c(C3CC3)nc(N3CCN(C(=O)CCc4ccco4)[C@H](C4CC4)C3)c(C#N)c2C)ccn1 [Compound 796, (R)-2-cyclopropyl-6-(3-cyclopropyl-4-(3-(furan-2-yl)propanoyl)piperazin-1-yl)-4-methyl-2′-vinyl-3,4′-bipyridine-5-carbonitrile]"
< 500,< 500,< 500,,"C=Cc1cc(-c2cc(C#N)c(N3CCN(C(=O)C[C@H](C)O)[C@H](C4CC4)C3)nc2C2CC2)ccn1 [Compound 595, 2-cyclopropyl-6-((R)-3-cyclopropyl-4-((S)-3-hydroxybutanoyl)piperazin-1-yl)-2′-vinyl-3,4′-bipyridine-5-carbonitrile]"
< 500,1000 to 10000,1000 to 10000,,"COCCC(=O)N1CCN(c2nc(C3CC3)c(-c3ccc(N)cc3)cc2C#N)C[C@H]1C [Compound 383, (R)-5-(4-aminophenyl)-6-cyclopropyl-2-(4-(3-methoxypropanoyl)-3-methylpiperazin-1-yl)nicotinonitrile]"
< 500,< 500,< 500,,"C=Cc1nccc2ccc(-c3cc(C#N)c(N4CCN(C(=O)C5CC5)[C@H](C5CC5)C4)nc3C3CC3)cc12 [Compound 710, (R)-2-(4-(cyclopropanecarbonyl)-3-cyclopropylpiperazin-1-yl)-6-cyclopropyl-5-(1-vinylisoquinolin-7-yl)nicotinonitrile]"
500 to 1000,< 500,< 500,,"C[C@@H]1CN(c2nc(C3CC3)c(-c3ccc(F)cc3)cc2C#N)CCN1C(=O)C1CC1 [Compound 550, (R)-2-(4-(cyclopropanecarbonyl)-3-methylpiperazin-1-yl)-6-cyclopropyl-5-(4-fluorophenyl)nicotinonitrile]"
< 500,< 500,500 to 1000,,"COCCC(=O)N1CCN(c2nc(C3CC3)c(-c3ccc4ncsc4c3)cc2C#N)C[C@H]1C [Compound 364, (R)-5-benzothiazol-6-yl-6-cyclopropyl-2-[4-(3-methoxy-propionyl)-3-methyl-piperazin-1-yl]-nicotinonitrile]"
< 500,1000 to 10000,1000 to 10000,,"COCCC(=O)N1CCN(c2nc(C3CC3)c(O[C@@H](C)c3ccccc3)cc2C#N)C[C@H]1C [Compound 303, 6-cyclopropyl-2-((R)-4-(3-methoxypropanoyl)-3-methylpiperazin-1-yl)-5-((S)-1-phenylethoxy)nicotinonitrile]"
< 500,500 to 1000,< 500,,"N#Cc1cc(-c2cccc3cnccc23)c(C2CC2)nc1N1CCN(C(=O)c2ccoc2)[C@H](C2CC2)C1 [Compound 488, (R)-6-cyclopropyl-2-(3-cyclopropyl-4-(furan-3-carbonyl)piperazin-1-yl)-5-(isoquinolin-5-yl)nicotinonitrile]"
500 to 1000,1000 to 10000,1000 to 10000,,"COCCC(=O)N1CCN(c2nc(C(C)C)c(OCCNC(=O)OCc3ccccc3)cc2C#N)C[C@H]1C [Compound 272, (R)-benzyl 2-(5-cyano-2-isopropyl-6-(4-(3-methoxypropanoyl)-3-methylpiperazin-1-yl)pyridin-3-yloxy)ethylcarbamate]"
< 500,< 500,< 500,,"C=Cc1cc(-c2c(C3CC3)nc(N3CCN(C(=O)CC4CCCC4)[C@H](C4CC4)C3)c(C#N)c2C)ccn1 [Compound 782, (R)-6-(4-(2-cyclopentylacetyl)-3-cyclopropylpiperazin-1-yl)-2-cyclopropyl-4-methyl-2′-vinyl-3,4′-bipyridine-5-carbonitrile]"
< 500,1000 to 10000,1000 to 10000,,"COCCC(=O)N1CCN(c2nc(C3CC3)c(OC(c3ccccc3)C(C)C)cc2C#N)C[C@H]1C (stereo partly drawn) [Compound 302, 6-cyclopropyl-2-((R)-4-(3-methoxypropanoyl)-3-methylpiperazin-1-yl)-5-(2-methyl-1-phenylpropoxy)nicotinonitrile]"
< 500,< 500,< 500,,"C=Cc1cc(-c2cc(C#N)c(N3CCN(C(=O)CCOC)[C@H](C4CC4)C3)nc2C2CC2)c2cccnc2n1 [Compound 645, (R)-6-cyclopropyl-2-(3-cyclopropyl-4-(3-methoxypropanoyl)piperazin-1-yl)-5-(2-vinyl-1,8-naphthyridin-4-yl)nicotinonitrile]"
< 500,< 500,< 500,,"C=Cc1cc(-c2cc(C#N)c(N3CCN(C(=O)COC)[C@H](C4CC4)C3)nc2C2CC2)ccn1 [Compound 590, (R)-2-cyclopropyl-6-(3-cyclopropyl-4-(2-methoxyacetyl)piperazin-1-yl)-2′-vinyl-3,4′-bipyridine-5-carbonitrile]"
< 500,500 to 1000,500 to 1000,,"N#Cc1cc(-c2cccc3cnccc23)c(C2CC2)nc1N1CCN(C(=O)C2CC2)[C@H](C2CC2)C1 [Compound 391, (R)-2-(4-(cyclopropanecarbonyl)-3-cyclopropylpiperazin-1-yl)-6-cyclopropyl-5-(isoquinolin-5-yl)nicotinonitrile]"
< 500,< 500,< 500,,"C=CC(=O)Nc1cccc(COc2cc(C#N)c(N3CCN(C(=O)CCOC)[C@H](C)C3)nc2C2CC2)c1 [Compound 381, (R)—N-(3-((5-cyano-2-cyclopropyl-6-(4-(3-methoxypropanoyl)-3-methylpiperazin-1-yl)pyridin-3-yloxy)methyl)phenyl)acrylamide]"
< 500,< 500,< 500,,"C=Cc1cnnc(Nc2cc(C#N)c(N3CCN(C(=O)CCOC)[C@H](C4CC4)C3)nc2C2CC2)c1 [Compound 775, (R)-6-cyclopropyl-2-(3-cyclopropyl-4-(3-methoxypropanoyl)piperazin-1-yl)-5-((5-vinylpyridazin-3-yl)amino)nicotinonitrile]"
< 500,,500 to 1000,500 to 1000,C=Cc1ncc2c(-c3cc(C#N)c(N4CCN(C(=O)CCO)[C@H](C5CC5)C4)nc3C3CC3)cccc2n1 [Compound 737]
< 500,< 500,< 500,,"C=Cc1cc(-c2cc(C#N)c(N3CCN(C(=O)CCOC)[C@H](C)C3)nc2C2CC2)c2cccnc2n1 [Compound 599, (R)-6-cyclopropyl-2-(4-(3-methoxypropanoyl)-3-methylpiperazin-1-yl)-5-(2-vinyl-1,8-naphthyridin-4-yl)nicotinonitrile]"
< 500,1000 to 10000,1000 to 10000,,"COCCC(=O)N1CCN(c2nc(C3CC3)c(-c3ccc4c(c3)OCO4)c(C)c2C#N)C[C@H]1C [Compound 269, (R)-5-(benzo[d][1,3]dioxol-5-yl)-6-cyclopropyl-2-(4-(3-methoxypropanoyl)-3-methylpiperazin-1-yl)-4-methylnicotinonitrile]"
< 500,< 500,< 500,,"C=Cc1cc(-c2c(C3CC3)nc(N3CCN(C(=O)CCOC)[C@H](C4CC4)C3)c(C#N)c2C)c2ccncc2n1 [Compound 746, 6-cyclopropyl-2-((R)-3-cyclopropyl-4-(3-methoxypropanoyl)piperazin-1-yl)-4-methyl-5-(2-vinyl-1,7-naphthyridin-4-yl)nicotinonitrile]"
< 500,< 500,< 500,,"C=Cc1cnnc(-c2c(C3CC3)nc(N3CCN(C(=O)OC(C)(C)C)[C@H](C4CC4)C3)c(C#N)c2C)c1 [Compound 771, (R)-tert-butyl 4-(3-cyano-6-cyclopropyl-4-methyl-5-(5-vinylpyridazin-3-yl)pyridin-2-yl)-2-cyclopropylpiperazine-1-carboxylate]"
< 500,< 500,< 500,,"C=Cc1ncc2c(-c3cc(C#N)c(N4CCN(C(=O)CCO)[C@H](C)C4)nc3C3CC3)cccc2n1 [Compound 652, (R)-6-cyclopropyl-2-(4-(3-hydroxypropanoyl)-3-methylpiperazin-1-yl)-5-(2-vinylquinazolin-5-yl)nicotinonitrile]"
